Source: US12391768B2, “Antibodies to ticagrelor and methods of use” (MEDIMMUNE LIMITED, priority 2014, dated 2025)
Like-named read-outs stand apart in the source and are kept apart here. Values belong to the molecule of their own block, whether it stands above or below them.

How the values were obtained:
[1] = molecular target: TICA0049 Fab; test: HTRF competition binding selectivity assay, TICA0049 His-Fab; set-up: species or system human
Procedure: (§1) Total Binding control wells were set up which contained all of the assay components above except that 5 ul assay buffer was added in place of the test selectivity compound addition. Negative Binding control wells were set up which contained all of the assay components included in the Total Binding control wells except that 5ul assay buffer was added in place of the His-Fab addition. Test compound serial titrations were either ½ or ⅓ depending on the particular experiment and top final assay compound concentrations were optimized on a compound specific basis. The concentration of biotinylated ticagrelor and His-Fab was optimized on a Fab specific basis in separate experiments. For the four Fabs investigated at the end of the lead isolation phase (TICA0010, TICA0049, TICA0053 and TICA0072) the final assay reagent concentrations used are set out in Table 1 below:
(§2) For the two Fabs investigated at the end of the lead optimization phase (TICA0162 and TICA0212) the final assay reagent concentrations used were 5nM biotinylated ticagrelor and 1 nM His Fab in both cases. […] In order to enable subsequent normalization of data to correct for any such vehicle related effects parallel titrations of DMSO alone were included in most experiments in which the final assay DMSO concentrations mirrored those of the test compound serial dilutions. At the end of the set up procedure that assay was incubated for 3hrs at RT before being read on an Envision plate reader using a standard read protocol.
(§3) The negative ratio value used in the calculation of % Delta F was derived from the Negative Binding control wells. % Delta F values were then used to calculate % Specific Binding values according to the equation below: Specific Binding (%)={(Sample Delta F−Negative Binding Delta F)/(Total Binding Delta F−Negative Binding Delta F)}×100
(§4) For standard calculations of % Specific Binding Total Binding Delta F was taken from Total Binding control wells which contained all of the aforementioned components of the assay but without inclusion of any competing test compound.
(§5) In those experiments where DMSO normalization was applied DMSO normalised % Specific Binding was calculated essentially according to the equation above except that in this case Total Binding Delta F was taken from wells containing all of the components in the Total Binding control wells as well as DMSO at a concentration equivalent to that in the relevant sample well.
(§6) In a second series of experiments further selectivity data was generated for TICA0049 and TICA0072 Fabs in which a subset of four of the twelve compounds listed in FIG. 4 were retested along with ticagrelor, TAM and TIM and several adenosine related compounds. Here, in a refinement to the earlier investigations in Table 2, experiments were designed in order to enable normalisation of percent specific binding values to correct for any non-specific vehicle related effects due to DMSO. Example plotted data from this second series of experiments is shown in FIG. 5A-F along with tabulated IC50 values in Table 3.

[2] = molecular target: TICA0072 Fab; test: HTRF competition binding selectivity assay, TICA0072 His-Fab; set-up: species or system human; details: second series (Table 3), DMSO normalised
Procedure: as §1, §2, §3, §4, §5, §6

[3] = human, in vivo; cited from earlier work
[4] = molecular target: TICA0162 Fab; test: HTRF competition binding selectivity assay, TICA0162 His-Fab; set-up: species or system human; details: Table 7, DMSO normalised; 5 nM biotinylated ticagrelor, 1 nM His Fab; read-out: IC50 (uM) for inhibition of biotinylated ticagrelor binding to TICA0162 Fab
Procedure: as §1
as §2, with “protocol. […]” for “protocol.”
as §5

[5] = molecular target: TICA0010 Fab; test: HTRF competition binding selectivity assay, TICA0010 His-Fab; set-up: species or system human; details: first series (Table 2), not DMSO normalised
Procedure: as §1, §2, §3, §4, §5

[6] = molecular target: TICA0053 Fab; test: HTRF competition binding selectivity assay, TICA0053 His-Fab; set-up: species or system human; details: first series (Table 2), not DMSO normalised
Procedure: as §1, §2, §3, §4, §5

[7] = Equilibrium affinity by KinExA3200, ticagrelor; type: binding; details: modifications in VL CDR3 or VH CDR3 only
Procedure: The affinity of anti-ticagrelor/TAM Fabs generated in Example 5 was determined using the KinExA3200. For the KinExA affinity measurement, beads (600 mg Azlactone beads) were first prepared by reacting them overnight with 1 mg streptavidin in 50 mM NaHCO3. Following blocking with 2 changes of Tris buffer (1M Tris pH 8.7, 10 mg/mL BSA) the streptavidin coated beads were resuspended in a total volume of 8 mL. Beads (1.33 mL, equivalent to 100 mg original dry Azlactone beads) were washed completely with PBS, then allowed to bind to approximately 2.5 μg biotin-ticagrelor in 1 mL PBS for 10 minutes with occasional agitation. […]
All assays were performed at room temperature. […] Bound antibody was then detected using DyLight649 labelled mouse anti-human Heavy and Light chain antibody. Sample volume (300-1300 μL) and injection time (90-120 s) varied with concentration, and 2 -3 reads were varied out per sample. The data were analysed using the KinExA n-Curve Analysis software. Using the Constant Partner analysis the equilibrium KD for the anti-ticagrelor Fab antibodies was determined.
As in the prior Example, Fabs were allowed to equilibrate at room temperature in the presence of either unmodified ticagrelor or TAM at concentrations from 20-fold excess. […] Bound antibody was then detected using a DyLight649 labelled mouse anti-human Heavy and Light chain detection antibody. […]

[8] = molecular target: TICA0159 IgG binding to biotinylated ticagrelor; test: Second generation HTRF epitope competition assay; details: for IC50: Fab, 16 nM TICA0159 IgG, 1 nM biotinylated ticagrelor; for Fold Improved: IC50 relative to parent TICA0072 Fab
Procedure: Purified parent TICA0072 (scFv or Fab) was used as a benchmark in all experiments such that improvements in IC50 measured with optimized variants (scFv or Fab) could be expressed as fold improvements over parent TICA0072. Total Binding Control Wells contained all assay components except that 5 ul assay buffer was added in place of the purified scFv or Fab sample. Negative Binding control wells contained all of the components of the Total Binding control wells except that 5 ul of assay buffer was added in place of the TICA0072 IgG.
In both single point HTS and multipoint IC50 profiling versions of the assay. plates were incubated for 3 hrs at RT before being read on an Envision plate reader using a standard HTRF read protocol in which samples are excited at 337 nm and time resolved fluorescence emission is measured at both 620 nm and 665 nM.
Raw 665 nm and 620 nm counts were used to calculate Delta F (%) and % Specific Binding according to the equations described earlier in Assays 1 and 4, respectively. For multipoint secondary profiling experiments IC50 values were determined using Graphpad Prism software using sigmoidal dose response (variable slope) curve fitting (4 parameter logistic equation).
This assay was used only in multipoint IC50 profiling format (as opposed to HTS format) and was performed essentially identically to the method given in Assay 5 (above) for multipoint IC50 profiling of purified Fab variants in the parent TICA0072 IgG based epitope competition assay. The only difference being that TICA0159 IgG was used in place of TICA0072 IgG at the appropriate point in the assay set up but at the same 16nM final assay concentration. In all other respects this assay was performed exactly as described above in the multipoint secondary profiling version for purified Fab.

[9] = second series (Table 3), DMSO normalised
[10] = second series (Table 3), DMSO normalised, read-out: IC50 in competition binding selectivity studies, TICA0049
[11] = first series (Table 2), not DMSO normalised
[12] = first series (Table 2), not DMSO normalised, read-out: IC50 (uM) for inhibition of biotinylated ticagrelor binding to TICA0049 his-Fab

Molecule: Nc1ncnc2c1ncn2[C@@H]1O[C@H](COP(=O)(O)OP(=O)(O)OP(=O)(O)O)[C@@H](O)[C@H]1O [ATP, adenosine triphosphate]
IC50 in competition binding selectivity studies, TICA0049 [1, 9]: trace of inhibition | IC50 in competition binding selectivity studies, TICA0072 [2]: trace of inhibition

IC50 in competition binding selectivity studies, TICA0049 [1, 9]: weak inhibition | IC50 [1, 10]: 865 µM
Molecule: CCCC(=O)Nc1ncnc2c1ncn2[C@@H]1O[C@@H]2COP(=O)(O)O[C@H]2[C@H]1OC(=O)CCC [Bucladesine]

IC50 in competition binding selectivity studies, TICA0049 [1, 9]: trace of inhibition | IC50 in competition binding selectivity studies, TICA0072 [2]: trace of inhibition
Molecule: Nc1ncnc2c1ncn2[C@@H]1O[C@H](CO)[C@@H](O)[C@H]1O [Adenosine]

IC50 in competition binding selectivity studies, TICA0049 [1, 9]: trace of inhibition | IC50 in competition binding selectivity studies, TICA0072 [2]: trace of inhibition
Molecule: Nc1ncnc2c1ncn2[C@@H]1O[C@H](COP(=O)(O)OP(=O)(O)O)[C@@H](O)[C@H]1O [ADP, adenosine diphosphate]

Molecule: CCCSc1nc(N)c2nnn(C3CC(OCCO)C(O)C3O)c2n1 (centres unmarked) [TIM]
detectability in circulation [3]: undetectable after 8 hours | fraction of the parent ticagrelor [3]: < 10%

IC50 [4]: > 1000 µM
Molecule: NS(=O)(=O)c1cc2c(cc1Cl)NC(C1CC3C=CC1C3)NS2(=O)=O (centres unmarked) [Cyclothiazide]

IC50 (uM) for inhibition of biotinylated ticagrelor binding to TICA00l0 his-Fab [5]: competitive inhibition | IC50 ([5]; read-out: IC50 (uM) for inhibition of biotinylated ticagrelor binding to TICA00l0 his-Fab): 102 µM | IC50 (uM) for inhibition of biotinylated ticagrelor binding to TICA0049 his-Fab [1, 11]: competitive inhibition | IC50 [1, 12]: 208 µM | IC50 in competition binding selectivity studies, TICA0049 [1, 9]: significant inhibition | IC50 [1, 10]: 188 µM | IC50 (uM) for inhibition of biotinylated ticagrelor binding to TICA0053 his-Fab [6]: competitive inhibition | IC50 ([6]; read-out: IC50 (uM) for inhibition of biotinylated ticagrelor binding to TICA0053 his-Fab): 17.5 µM
Molecule: CSCCNc1nc(SCCC(F)(F)F)nc2c1ncn2[C@@H]1O[C@H](COP(=O)(O)OP(=O)(O)C(Cl)(Cl)P(=O)(O)O)[C@@H](O)[C@H]1O [Cangrelor]

IC50 (uM) for inhibition of biotinylated ticagrelor binding to TICA0049 his-Fab [1, 11]: partial competitive inhibition | IC50 [1, 12]: 467 µM | IC50 in competition binding selectivity studies, TICA0049 [1, 9]: weak inhibition | IC50 [1, 10]: 902 µM
Molecule: CC(=O)NC[C@H]1CN(c2ccc(N3CCOCC3)c(F)c2)C(=O)O1 [Linezolid]

IC50 [8]: 0.0735 µM | Fold Improved [8]: 23.3
B1: TICA0152: VL CDR3 variant of TICA0072; VH SEQ ID NO:62, VL SEQ ID NO:67 (antibody, listed as Homo sapiens, V domains shown)
VH: QVQLQESGAEVKKPGSSVRVSCKASGGTFDSYSIHWVRQAPGQGLEWMGGIIPAFGTLSSAQDFQARVTISADKSTSTAYMELSGLRSEDTAVYYCARGSHLYDFWSASHPPNDALAIWGQGTLVTVSS
VL: QSVVTQPPSVSAAPGQKVTISCSGSNSDIGNNYVSWYQQLPGTAPKLLIYDNNKRPSGIPDRFSGSKSGTSATLAITGLQAGDEADYYCGTWLYDRAVGLFGGGTKVTVL
fold improvement over TICA0072 [7]: 200 fold

IC50 [8]: 0.0163 µM | Fold Improved [8]: 105.2
B2: TICA0162: VH CDR3 variant of TICA0072; VH SEQ ID NO:52, VL SEQ ID NO:57 (antibody, listed as Homo sapiens, V domains shown)
VH: QVQLQESGAEVKKPGSSVRVSCKASGGTFDSYSIHWVRQAPGQGLEWMGGIIPAFGTLSSAQDFQARVTISADKSTSTAYMELSGLRSEDTAVYYCARGSFDYYFWSASHPPNDALAIWGQGTLVTVSS
VL: QSVVTQPPSVSAAPGQKVTISCSGSNSDIGNNYVSWYQQLPGTAPKLLIYDNNKRPSGIPDRFSGSKSGTSATLAITGLQAGDEADYYCGTWDISLSAGLFGGGTKVTVL
fold improvement over TICA0072 [7]: 50 fold
